Laboratory results published in PMC6409085, “Three odorant-binding proteins are involved in the behavioral response of Sogatella furcifera to rice plant volatiles” (PeerJ, 2019).
Values joined by “and” are separate entries in the source; they are usually repeats but may differ in a detail not shown here. Equal entries are not always repeated.

Assays:
[1] = molecular target: SfurOBP2 (Sogatella furcifera, UniProt V5T759); assay: biochemical; format: binding
Outline: (§1)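 In 50 mM Tris-HCl pH 7.4, odorants displace 1-NPN (2.0 µM) from 2.0 µM protein. Emission at 390–490 nm under 337 nm excitation is measured 2 min after competitor addition, in triplicate. Ki is obtained from IC50 and the 1-NPN dissociation constant.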

[2] = molecular target: SfurOBP11 (Sogatella furcifera, UniProt V5T6E3); assay: biochemical; format: binding
Sequence of SfurOBP11 (V5T6E3 entry or part of it): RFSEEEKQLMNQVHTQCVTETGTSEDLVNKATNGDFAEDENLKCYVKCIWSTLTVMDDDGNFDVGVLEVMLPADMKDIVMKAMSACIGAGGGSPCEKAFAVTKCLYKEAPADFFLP
Outline: as §1

[3] = molecular target: SfurOBP3 (Sogatella furcifera, UniProt V5T818); assay: biochemical; format: binding; settings: for Fluorescence competitive binding assay, fluorescence intensity: OBP3, three replicate columns
Sequence of SfurOBP3 (V5T818 entry or part of it): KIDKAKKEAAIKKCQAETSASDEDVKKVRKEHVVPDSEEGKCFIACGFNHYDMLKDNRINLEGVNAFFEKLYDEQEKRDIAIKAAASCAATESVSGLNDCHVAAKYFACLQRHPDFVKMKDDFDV
Outline: as §1

[4] = molecular target: SfurOBP1 (Sogatella furcifera, UniProt V5T8N5); assay: biochemical; format: binding; settings: for Fluorescence competitive binding assay, fluorescence intensity: OBP1, three replicate columns
Sequence of SfurOBP1 (V5T8N5 entry or part of it): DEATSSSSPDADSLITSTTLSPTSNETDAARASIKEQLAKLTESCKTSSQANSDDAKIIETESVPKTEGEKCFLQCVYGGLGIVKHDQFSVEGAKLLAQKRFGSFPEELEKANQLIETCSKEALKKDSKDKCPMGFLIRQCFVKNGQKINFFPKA
Outline: as §1

[5] = test system: S. furcifera adults; assay: Y-tube olfactometer behavioral trials; format: in vivo, Sogatella furcifera; settings: odorant 50 µL/L vs hexane
Outline: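 Single S. furcifera adults (2 days post-emergence, starved 0.5 h) chose between odorant (100 µL of 50 µL/L on filter paper) and hexane control in a glass Y-tube, charcoal-filtered humidified air 300 mL/min per arm, 25 ± 1 °C, 50% RH. Choice scored if insect passed half an arm and stayed >1 min within 10 min; 45 insects per compound, chi-squared test.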

Sequence of SfurOBP2 (V5T759 entry or part of it): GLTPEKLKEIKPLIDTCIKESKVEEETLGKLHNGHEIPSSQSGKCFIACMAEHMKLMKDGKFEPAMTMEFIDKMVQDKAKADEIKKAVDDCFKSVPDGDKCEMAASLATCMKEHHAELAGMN

IC50 ([1]; SfurOBP2, protein and 1-NPN both 2.0 µM, competitor 2-20 µM, read-out: IC50): > 20 µM
Fluorescence competitive binding assay, OBP2 (raw fluorescence reading) ([1]; ligand concentration 2 (unit not given), replicate column 1 of 3): 15175
Fluorescence competitive binding assay, OBP2 (raw fluorescence reading) ([1]; ligand concentration 2 (unit not given), replicate column 2 of 3): 15154
Fluorescence competitive binding assay, OBP2 (raw fluorescence reading) ([1]; ligand concentration 2 (unit not given), replicate column 3 of 3): 16258
Fluorescence competitive binding assay, OBP2 (raw fluorescence reading) ([1]; ligand concentration 4 (unit not given), replicate column 1 of 3): 15758
Fluorescence competitive binding assay, OBP2 (raw fluorescence reading) ([1]; ligand concentration 4 (unit not given), replicate column 2 of 3): 17105
Fluorescence competitive binding assay, OBP2 (raw fluorescence reading) ([1]; ligand concentration 4 (unit not given), replicate column 3 of 3): 16490
Fluorescence competitive binding assay, OBP2 (raw fluorescence reading) ([1]; ligand concentration 6 (unit not given), replicate column 1 of 3): 15945
Fluorescence competitive binding assay, OBP2 (raw fluorescence reading) ([1]; ligand concentration 6 (unit not given), replicate column 2 of 3): 16570
Fluorescence competitive binding assay, OBP2 (raw fluorescence reading) ([1]; ligand concentration 6 (unit not given), replicate column 3 of 3): 19054
Fluorescence competitive binding assay, OBP2 (raw fluorescence reading) ([1]; ligand concentration 8 (unit not given), replicate column 1 of 3): 15963
Fluorescence competitive binding assay, OBP2 (raw fluorescence reading) ([1]; ligand concentration 8 (unit not given), replicate column 2 of 3): 18724
Fluorescence competitive binding assay, OBP2 (raw fluorescence reading) ([1]; ligand concentration 8 (unit not given), replicate column 3 of 3): 18059
Fluorescence competitive binding assay, OBP2 (raw fluorescence reading) ([1]; ligand concentration 10 (unit not given), replicate column 1 of 3): 16134
Fluorescence competitive binding assay, OBP2 (raw fluorescence reading) ([1]; ligand concentration 10 (unit not given), replicate column 2 of 3): 18215
Fluorescence competitive binding assay, OBP2 (raw fluorescence reading) ([1]; ligand concentration 10 (unit not given), replicate column 3 of 3): 19226
Fluorescence competitive binding assay, OBP2 (raw fluorescence reading) ([1]; ligand concentration 12 (unit not given), replicate column 1 of 3): 15563
Fluorescence competitive binding assay, OBP2 (raw fluorescence reading) ([1]; ligand concentration 12 (unit not given), replicate column 2 of 3): 19243
Fluorescence competitive binding assay, OBP2 (raw fluorescence reading) ([1]; ligand concentration 12 (unit not given), replicate column 3 of 3): 19003
Fluorescence competitive binding assay, OBP2 (raw fluorescence reading) ([1]; ligand concentration 14 (unit not given), replicate column 1 of 3): 19071
Fluorescence competitive binding assay, OBP2 (raw fluorescence reading) ([1]; ligand concentration 14 (unit not given), replicate column 2 of 3): 18512
Fluorescence competitive binding assay, OBP2 (raw fluorescence reading) ([1]; ligand concentration 14 (unit not given), replicate column 3 of 3): 18689
Fluorescence competitive binding assay, OBP2 (raw fluorescence reading) ([1]; ligand concentration 16 (unit not given), replicate column 1 of 3): 17244
Fluorescence competitive binding assay, OBP2 (raw fluorescence reading) ([1]; ligand concentration 16 (unit not given), replicate column 2 of 3): 19263
Fluorescence competitive binding assay, OBP2 (raw fluorescence reading) ([1]; ligand concentration 16 (unit not given), replicate column 3 of 3): 18663
Fluorescence competitive binding assay, OBP2 (raw fluorescence reading) ([1]; ligand concentration 18 (unit not given), replicate column 1 of 3): 23408
Fluorescence competitive binding assay, OBP2 (raw fluorescence reading) ([1]; ligand concentration 18 (unit not given), replicate column 2 of 3): 23725
Fluorescence competitive binding assay, OBP2 (raw fluorescence reading) ([1]; ligand concentration 18 (unit not given), replicate column 3 of 3): 20804
Fluorescence competitive binding assay, OBP2 (raw fluorescence reading) ([1]; ligand concentration 20 (unit not given), replicate column 1 of 3): 16894
Fluorescence competitive binding assay, OBP2 (raw fluorescence reading) ([1]; ligand concentration 20 (unit not given), replicate column 2 of 3): 20680
Fluorescence competitive binding assay, OBP2 (raw fluorescence reading) ([1]; ligand concentration 20 (unit not given), replicate column 3 of 3): 19308
IC50 ([2]; SfurOBP11, protein and 1-NPN both 2.0 µM, competitor 2-20 µM, read-out: IC50): > 20 µM
Fluorescence intensity, fluorescence competitive binding assay, OBP11 ([2]; ligand concentration 4, replicate 1): 32002
Fluorescence intensity, fluorescence competitive binding assay, OBP11 ([2]; ligand concentration 6, replicate 1): 31916
Fluorescence intensity, fluorescence competitive binding assay, OBP11 ([2]; ligand concentration 8, replicate 1): 31638
Fluorescence intensity, fluorescence competitive binding assay, OBP11 ([2]; ligand concentration 8, replicate 2): 32522
Fluorescence intensity, fluorescence competitive binding assay, OBP11 ([2]; ligand concentration 8, replicate 3): 31984
Fluorescence intensity, fluorescence competitive binding assay, OBP11 ([2]; ligand concentration 10, replicate 1): 34517
Fluorescence intensity, fluorescence competitive binding assay, OBP11 ([2]; ligand concentration 10, replicate 2): 33120
Fluorescence intensity, fluorescence competitive binding assay, OBP11 ([2]; ligand concentration 10, replicate 3): 33819
Fluorescence intensity, fluorescence competitive binding assay, OBP11 ([2]; ligand concentration 12, replicate 3): 31678
Fluorescence intensity, fluorescence competitive binding assay, OBP11 ([2]; ligand concentration 14, replicate 1): 31889
Fluorescence intensity, fluorescence competitive binding assay, OBP11 ([2]; ligand concentration 14, replicate 2): 31807
Fluorescence intensity, fluorescence competitive binding assay, OBP11 ([2]; ligand concentration 14, replicate 3): 32302
Fluorescence intensity, fluorescence competitive binding assay, OBP11 ([2]; ligand concentration 18, replicate 1): 36648
Fluorescence intensity, fluorescence competitive binding assay, OBP11 ([2]; ligand concentration 18, replicate 2): 40474
Fluorescence intensity, fluorescence competitive binding assay, OBP11 ([2]; ligand concentration 18, replicate 3): 36079
Fluorescence intensity, fluorescence competitive binding assay, OBP11 ([2]; ligand concentration 20, replicate 1): 36041
Fluorescence intensity, fluorescence competitive binding assay, OBP11 ([2]; ligand concentration 20, replicate 2): 35048
Fluorescence intensity, fluorescence competitive binding assay, OBP11 ([2]; ligand concentration 20, replicate 3): 35313
Fluorescence competitive binding assay, fluorescence intensity ([3]; ligand concentration 2): 35042 and 35938 and 36236
Fluorescence competitive binding assay, fluorescence intensity ([3]; ligand concentration 4): 33936 and 35041 and 36163
Fluorescence competitive binding assay, fluorescence intensity ([3]; ligand concentration 6): 30371 and 31101 and 32222
Fluorescence competitive binding assay, fluorescence intensity ([3]; ligand concentration 8): 32781 and 31040 and 32847
Fluorescence competitive binding assay, fluorescence intensity ([3]; ligand concentration 10): 31032 and 32369 and 33307
Fluorescence competitive binding assay, fluorescence intensity ([3]; ligand concentration 12): 29013 and 34433 and 32292
Fluorescence competitive binding assay, fluorescence intensity ([3]; ligand concentration 14): 31092 and 30872 and 34922
Fluorescence competitive binding assay, fluorescence intensity ([3]; ligand concentration 16): 33838 and 32037 and 30214
Fluorescence competitive binding assay, fluorescence intensity ([3]; ligand concentration 18): 37931 and 38340 and 38776
Fluorescence competitive binding assay, fluorescence intensity ([3]; ligand concentration 20): 37363 and 39141 and 38102
binding affinity to SfurOBP3 (in words) ([3]; SfurOBP3): high binding affinities
IC50 ([3]; SfurOBP3, protein and 1-NPN both 2.0 µM, competitor 2-20 µM, read-out: IC50): > 20 µM
Fluorescence competitive binding assay, fluorescence intensity ([4]; ligand concentration 2 (μM)): 5991 and 6647 and 6019
Fluorescence competitive binding assay, fluorescence intensity ([4]; ligand concentration 4 (μM)): 9444 and 9717 and 9590
Fluorescence competitive binding assay, fluorescence intensity ([4]; ligand concentration 6 (μM)): 8928 and 9981 and 10192
Fluorescence competitive binding assay, fluorescence intensity ([4]; ligand concentration 8 (μM)): 7764 and 12061 and 8808
Fluorescence competitive binding assay, fluorescence intensity ([4]; ligand concentration 10 (μM)): 10672 and 12757 and 12848
Fluorescence competitive binding assay, fluorescence intensity ([4]; ligand concentration 12 (μM)): 11226 and 16440 and 11668
Fluorescence competitive binding assay, fluorescence intensity ([4]; ligand concentration 14 (μM)): 11457 and 12509 and 12654
Fluorescence competitive binding assay, fluorescence intensity ([4]; ligand concentration 16 (μM)): 9720 and 12853 and 11395
Fluorescence competitive binding assay, fluorescence intensity ([4]; ligand concentration 18 (μM)): 14020 and 17603 and 13863
Fluorescence competitive binding assay, fluorescence intensity ([4]; ligand concentration 20 (μM)): 16799 and 14644 and 13556
IC50 ([4]; SfurOBP1, protein and 1-NPN both 2.0 µM, competitor 2-20 µM, read-out: IC50): > 20 µM
SMILES: C=C/C(C)=C/C/C=C(\C)CCC=C(C)C [α-farnesene]
behavioral response of S. furcifera (in words) [5]: strongly attracted
number of insects choosing hexane arm ([5]; adults): 10
number of insects choosing volatilies arm ([5]; adults): 25
number of insects failed (no choice) ([5]; adults): 5
